tested on: not given; experiment: not given; settings: not given

Row | SMILES | melting point
1 | O=C(NCc1c(F)cccc1F)c1nn(-c2ccc(Cl)cc2)c2c1C1CC3CC(C1)CC2C3 [Example 115, N(7)-(2,6-Difluorobenzyl)-5-(4-chlorophenyl)-5,6-diazatetracyclo[7.3.1.1^3,11.0^4,8]tetradeca-4(8),6-diene-7-carboxamide] | 166 to 167 °C
2 | O=C(NCc1c(F)cccc1F)c1nn(-c2ccc(Cl)cc2Cl)c2c1C1CCC2C1 (stereo not drawn) [Example 248, N(3)-(2,6-Difluorobenzyl)-1-(2,4-dichlorophenyl)-4,5,6,7-tetrahydro-1H-4,7-methano-indazole-3-carboxamide] | 130 to 133 °C
3 | CN(NC(=O)c1nn(-c2ccc(Cl)cc2Cl)c2c1C1CCC2C1)c1ccccc1Cl (stereo not drawn) [Example 258, N(3)-[N-(2-Chlorophenyl)-N-methylamino]-1-(2,4-dichlorophenyl)-4,5,6,7-tetrahydro-1H-4,7-methano-indazole-3-carboxamide] | 121 to 124 °C
4 | CN(NC(=O)c1nn(-c2ccc(Cl)cc2Cl)c2c1C1CCC2C1)c1ccc(Cl)cc1Cl (stereo not drawn) [Example 261, N(3)-[(2,4dichlorophenyl)-N-methylamino]-1-(2,4-dichlorophenyl)-4,5,6,7-tetrahydro-1H-4,7-methano-indazole-3-carboxamide] | 135 to 138 °C
5 | O=C(NNc1ccccc1F)c1nn(-c2ccc(Br)cc2)c2c1C1CCC2C1 (stereo not drawn) [Example 278, N(3)-[(2-Fluorophenyl)amino]-1-(4-bromophenyl)-4,5,6,7-tetrahydro-1H-4,7-methano-indazole-3-carboxamide] | 123 °C

target: hCB2 (Homo sapiens, UniProt P34972); experiment: In vitro binding assay using hCB2-CHO membranes, [3H]-CP-55,940 displacement (Protocol IV); design: expressed in transfected cells; host or cells: CHO (hCB2-CHO, generated in-house); settings: 1 h, read-out: % Displacement Protocol IV
Procedure: IV. Protocol for In Vitro Assay Using hCB2-CHO Membranes:
In this assay, [^3H]-CP-55,940 was used as the radioligand to bind human CB2 receptor expressed on the membranes from CHO cells (hCB2-CHO cell line was generated in-house) which can be displaced by unlabeled ligands having affinity to the CB2 receptor.
The assay was performed according to the modified method of Ross et al., 1999 (Br. J. Pharmacol. 128, 735-743). The reaction was set up in a total volume of 200 μl in PEI (0.2%) precoated Millipore GFB filter plates. 1 mM stocks of test compounds were prepared in DMSO and tested at a final concentration of 300 nM. The non-specific binding was determined by 0.5 μM CP-55, 940. The total reaction mixture contained Tris-BSA buffer (50 mM Tris, 5 mM MgCl2, 1 mM EDTA, pH 7.4 with 0.1% BSA), unlabelled CP-55, 940 (0.5 μM) or test samples, [^3H]-CP-55, 940 (0.75 nM) and 25-50 μg of human CB2 receptor preparation. The assay mixture (with or without the test compound) was incubated at 30° C. for 1 hour. The reaction was stopped by rapid filtration under vacuum and the radioactivity on the filters was measured by liquid scintillation counting.
The percent (%) displacement by a test ligand was calculated by comparing the specific bound values.

hCB2, sequence (P34972 whole entry): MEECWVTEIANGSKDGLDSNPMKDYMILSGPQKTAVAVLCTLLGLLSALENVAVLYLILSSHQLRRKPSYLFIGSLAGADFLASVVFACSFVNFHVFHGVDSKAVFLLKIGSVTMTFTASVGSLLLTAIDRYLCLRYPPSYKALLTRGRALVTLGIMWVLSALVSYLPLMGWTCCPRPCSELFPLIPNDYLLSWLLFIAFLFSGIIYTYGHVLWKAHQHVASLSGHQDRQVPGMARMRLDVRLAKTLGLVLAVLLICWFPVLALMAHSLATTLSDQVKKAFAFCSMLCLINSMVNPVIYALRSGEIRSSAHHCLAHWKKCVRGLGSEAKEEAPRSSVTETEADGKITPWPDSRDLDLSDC

Row | SMILES | inhibition at 0.3 µM
6 | CCCCCn1nc2c(c1C(=O)NC(C)(C)c1ccccc1)C1CC3CC(CC2C3)C1 [Example 190a, N(7)-(1-Methyl-1-phenylethyl)-6-pentyl-5,6-diazatetracyclo[7.3.1.1^3,11.0^4,8]tetradeca-4,7-diene-7-carboxamide] | 0%
7 | CC(C)(C)NC(=O)c1nn(-c2ccc(Br)cc2)c2c1C1CCC2C1 (stereo not drawn) [Example 324, N(3)-(tert-Butyl)-1-(4-bromophenyl)-4,5,6,7-tetrahydro-1H-4,7-methano-indazole-3-carboxamide] | 88.5%
8 | O=C(NC12CC3CC(CC(C3)C1)C2)c1nn(-c2ccc(F)cc2F)c2c1C1CCC2C1 (stereo not drawn) [Example 334, N(3)-(Adamantan-1yl)-1-(2,4-difluorophenyl)-4,5,6,7-tetrahydro-1H-4,7-methano-indazole-3-carboxamide] | 100%
9 | CC(C)(C)NC(=O)c1nn(Cc2ccc(F)cc2)c2c1C1CCC2C1 (stereo not drawn) [Example 335a, N(3)-(tert-butyl)-1-(4-fluorobenzyl)-4,5,6,7-tetrahydro-1H-4,7-methano-indazole-3-carboxamide] | 96.5%

same assay, conditions: 1 h; hCB2-CHO membranes, [3H]-CP-55,940 displacement; read-out: % Displacement Protocol IV

Row | SMILES | inhibition at 0.3 µM
10 | CC(NC(=O)c1nn(-c2ccc(Cl)cc2)c2c1C1CC3CC(C1)CC2C3)c1ccccc1Cl (stereo not drawn) [Example 138, N7-[1-(2-Chlorophenyl)ethyl]-5-(4-chlorophenyl)-5,6-diazatetracyclo[7.3.1.1^3,11.0^4,8]tetradeca-4(8),6-diene-7-carboxamide] | 68%
11 | CC(NC(=O)c1nn(-c2ccc(F)cc2F)c2c1C1CC3CC(C1)CC2C3)c1ccccc1Cl (stereo not drawn) [Example 151, N(7)-[1-(2-Chlorophenyl)ethyl]-5-(2,4-difluorophenyl)-5,6-diazatetracyclo[7.3.1.1^3,11.0^4,8]tetradeca-4(8),6-diene-7-carboxamide] | 69.2%
12 | O=C(NCc1ccccc1Cl)c1nn(-c2ccc(Cl)cn2)c2c1C1CC3CC(C1)CC2C3 [Example 185, N7-(2-Chlorobenzyl)-5-(5-chloro-2-pyridyl)-5,6-diazatetracyclo[7.3.1.1^3,11.0^4,8]tetradeca-4(8),6-diene-7-carboxamide] | 60.7%
13 | O=C(NCc1ccccc1Cl)c1nn(-c2ccc(F)cc2F)c2c1C1CCC2C1 (stereo not drawn) [Example 297, N5-(2-Chlorobenzyl)-3-(2,4-difluorophenyl)-3,4-diazatricyclo[5.2.1.0^2,6]deca-2(6),4-diene-5-carboxamide] | 70.3%
14 | CN1CCN(NC(=O)c2nn(-c3ccc(F)cc3F)c3c2C2CCC3C2)CC1 (stereo not drawn) [Example 318, N(3)-(4-methylpiperazino)-1-(2,4-difluorophenyl)-4,5,6,7-tetrahydro-1H-4,7-methano-indazole-3-carboxamide] | 31%
15 | CC(C)(C)NC(=O)c1nn(-c2ccc(Cl)cc2)c2c1C1CCC2C1 (stereo not drawn) [Example 321, N(3)-(tert-Butyl)-1-(4-chlorophenyl)-4,5,6,7-tetrahydro-1H-4,7-methano-indazole-3-carboxamide] | 92.9%
16 | CC(C)(C)NC(=O)c1n[nH]c2c1C1(c3ccc(Cl)c(Cl)c3)CCC2C1 (stereo not drawn) [Example 325, N(3)-(tert-Butyl)-4-(3,4-dichlorophenyl)-4,5,6,7-tetrahydro-1H-4,7-methano-indazole-3-carboxamide] | 99.6%
17 | CC(C)(C)NC(=O)c1nn(-c2ccc(Cl)cc2Cl)c2c1C1CCC2C1 (stereo not drawn) [Example 327, N(3)-(tert-Butyl)-1-(2,4-dichlorophenyl)-4,5,6,7-tetrahydro-1H-4,7-methano-indazole-3-carboxamide] | 100%
18 | O=C(Nc1ccc(O)cc1)c1nn(-c2ccc(F)cc2F)c2c1C1CCC2C1 (stereo not drawn) [Example 328, N(3)-(4-Hydroxyphenyl)-1-(2,4-difluorophenyl)-4,5,6,7-tetrahydro-1H-4,7-methano-indazole-3-carboxamide] | 64.4%
19 | CCOc1cc(F)ccc1-n1nc(C(=O)NC(C)(C)C)c2c1C1CCC2C1 (stereo not drawn) [Example 329, N(3)-(tert-Butyl)-1-(2-ethoxy,4-fluorophenyl)-4,5,6,7-tetrahydro-1H-4,7-methano-indazole-3-carboxamide] | 88.5%
20 | O=C(NCc1ccco1)c1nn(-c2ccc(F)cc2F)c2c1C1CCC2C1 (stereo not drawn) [Example 330, N(3)-(2-furylmethyl)-1-(2,4-difluorophenyl)-4,5,6,7-tetrahydro-1H-4,7-methano-indazole-3-carboxamide] | 64.9%
21 | O=C(N[C@H](CO)c1ccc(F)cc1)c1nn(-c2ccc(F)cc2F)c2c1C1CCC2C1 (stereo partly drawn) [Example 332, N(3)-[(1S)-2-Hydroxy-1-(4-fluorophenyl)ethyl]-1-(2,4-difluorophenyl)-4,5,6,7-tetrahydro-1H-4,7-methano-indazole-3-carboxamide] | 70.1%
22 | CC(C)(C)NC(=O)C1C2=C(NN1Cc1ccc(F)cc1)C1CCC2C1 (stereo not drawn) [Example 335b, N(3)-(tert-butyl)-2-(4-fluorobenzyl)-4,5,6,7-tetrahydro-1H-4,7-methano-indazole-3-carboxamide] | 8.7%
23 | Cc1ccc(CN2NC3=C(C4CCC3C4)C2C(=O)NC(C)(C)C)cc1 (stereo not drawn) [Example 336b, N(3)-(tert-butyl)-2-(4-methylbenzyl)-4,5,6,7-tetrahydro-1H-4,7-methano-indazole-3-carboxamide] | 26.5%
24 | CC12CCC(C1)C(C)(C)C2NC(=O)c1nn(-c2ccc(Cl)cc2Cl)c2c1C1CCC2c2ccccc21 (stereo not drawn) [Example 507, N12-(1,3,3-Trimethylbicyclo[2.2.1]hept-2-yl)-10-(2,4-dichlorophenyl)-10,11-diazatetracyclo[6.5.2.0^2,7.0^9,13]pentadeca-2(7),3,5,9(13),11-pentaene-12-carboxamide] | 91.7%
25 | CC(C)(NC(=O)c1nn(-c2ccc(Cl)cc2Cl)c2c1C1CCC2c2ccccc21)c1ccccc1 (stereo not drawn) [Example 508, N12-(1-Methyl-1-phenylethyl)-10-(2,4-dichlorophenyl)-10,11-diazatetracyclo[6.5.2.0^2,7.0^9,13]pentadeca-2,4,6,9(13),11-pentaene-12-carboxamide] | 67.7%

same assay, conditions: hCB2-CHO membranes, [3H]-CP-55,940 displacement

Row | SMILES | % Displacement Protocol IV
26 | O=C(NCc1cccs1)c1nn(-c2ccc(F)cc2F)c2c1C1CCC2C1 (stereo not drawn) [Example 331, N(3)-(2-thiophenemethyl)-1-(2,4-difluorophenyl)-4,5,6,7-tetrahydro-1H-4,7-methano-indazole-3-carboxamide] | 75.26%
27 | COC(=O)[C@H](CC(C)C)NC(=O)c1nn(-c2ccc(F)cc2F)c2c1C1CCC2C1 (stereo partly drawn) [Example 333, Methyl-(2S)-2-[5-(2,4-difluorophenyl)-4,5-diazatricyclo[5.2.1.0.^2,6]deca-2(6),3-dien-3-ylcarboxamido]-4-methylpentanoate] | 100.00%
28 | CC12CCC(c3c(C(=O)N[C@@H](CO)c4ccccc4)nn(-c4ccc(F)cc4F)c31)C2(C)C (stereo partly drawn) [Example 410] | 15.5%
29 | CC(C)(C)NC(=O)c1nn(-c2ccc(F)cc2F)c2c1[C@H]1CC[C@]2(C)C1(C)C [Example 411, (4S,7R)—N(3)-tert-Butyl-1-(2,4-difluorophenyl)-7,8,8-trimethyl-4,5,6,7-tetrahydro-1H-methano-indazole-3-carboxamide] | 49.68%
30 | CC(C)(C)NC(=O)c1nn(-c2ccc(F)cc2F)c2c1C1CCC2c2ccccc21 (stereo not drawn) [Example 702, N(12)-tert-Butyl-10-(2,4-difluorophenyl)-10,11-diazatetracyclo[6.5.2.0^2,7.0^9,13]tetradeca-2,4,6,9(13),11-pentaene-12-carboxamide] | 33.00%

— patent US7923465B2, “Cannabinoid receptor ligands, pharmaceutical compositions containing them, and process for their preparation” (priority 2005, dated 2011)
